This note sets out measurements from article PMC11560554 (Chembiochem : a European journal of chemical biology, 2024).

The test concerns the target T1, human macrophage galactose-type lectin (hMGL) (Homo sapiens, UniProt Q8IUN9).
T1 sequence (Q8IUN9 1-316): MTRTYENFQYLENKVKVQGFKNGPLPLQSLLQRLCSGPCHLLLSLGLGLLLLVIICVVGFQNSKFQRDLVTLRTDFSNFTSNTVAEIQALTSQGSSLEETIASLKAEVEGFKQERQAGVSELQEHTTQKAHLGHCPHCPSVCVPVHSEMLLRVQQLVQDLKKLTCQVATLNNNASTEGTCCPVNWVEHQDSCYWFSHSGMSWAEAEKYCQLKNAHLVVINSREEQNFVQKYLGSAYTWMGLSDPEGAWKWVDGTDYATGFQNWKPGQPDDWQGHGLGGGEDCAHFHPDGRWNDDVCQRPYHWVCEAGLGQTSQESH
As to the kind of experiment: ITC analysis of binding of GalNAc and MUC1.

[1] abbreviates: 10 mM HEPES sodium salt, 50 mM NaCl, 2 mM CaCl2, pH 7.4, 298 K, one-site model.

Regarding `CC(=O)N[C@H]1C(O)O[C@H](CO)[C@H](O)[C@@H]1O` (mixture of isomers) [GalNAc, N-acetylgalactosamine], under setting [1], the KA worked out at 68000 M⁻¹, the ΔG is -6.59 kcal/mol and the “−TΔS” value came out at 4.97 kcal/mol. Also, the “n (stoichiometry)” value (complete saturation of hMGL, functional valency = 1/n, pH 7.4, 298 K) turned out to be 0.99.
